How the values were obtained:
[1] = tested on: NADH oxidase of HeLa plasma membranes; settings: background statement; cited from earlier work
[2] = tested on: tTIP; assay: Direct assay of tTIP activity of HeLa plasma membranes with DTNA substrate; assay type: biochemical, human; settings: no antibody
[3] = tested on: NADH oxidase of HeLa plasma membranes; assay: NADH oxidase activity of HeLa S plasma membranes; assay type: biochemical, human; settings: 37° C.
Method: (§1) Spectrophotometric tNOX Assay. NADH oxidase activity was determined as the disappearance of NADH measured at 340 nm with 430 nm as reference using an SLM Aminco (Lake Forest, Calif.) DW-2000 spectrophotometer in the dual wavelength mode of operation or a Hitachi (Tokyo, Japan) U3210 spectrophotometer at 340 nm with continuous recording over 5 or 10 min intervals once steady-state rates were obtained. The reaction mixture contained 50 mM Tris-Mes buffer (pH 7.0), 2 mM KCN to inhibit any potential mitochondrial oxidase activity, and 150 μM NADH in a total volume of 2.5 ml. Assay was at 37° C. with constant stirring. With purified fractions, 1 μM reduced glutathione was added to reduce the protein in the presence of substrate and human serum albumin, 0.1 mg/ml, as a protein source of thiols. After 10 min, 0.03% hydrogenperoxide was added (or oxidized glutathione) to reoxidize the protein under renaturing conditions and in the presence of substrate to start the reaction. A millimolar extinction coefficient of 6.22 was used to determine NADH disappearance. To determine capsaicin inhibition, capsaicin in DMSO was added to a final concentration of 1 μM (0.1% DMSO) and the rate of NADH oxidation determined over 10 min. Capsaicin at a final concentration of 100 μM (0.2% DMSO) was then added and the assay was continued for an additional 10 min.

[4] = tested on: tTIP; assay: tTIP activity of sera of cancer patients, dithio-dipyridyl substrate; assay type: biochemical, human; settings: Breast CA sera, without MAB 12.1
Source text: An alternative assay procedure is the use of a dithio-dipyridyl substrate as described in Morré et al. (1999) Mol. Cell. Biochem. 207:7-13.

[5] = tested on: tNOX; assay: Immunoprecipitation of tNOX with MAB 12.1, supernatant activity assayed; assay type: biochemical, human; settings: Preimmune
Method: Spectrophotometric tNOX Assay. NADH oxidase activity was determined as the disappearance of NADH measured at 340 nm with 430 nm as reference using an SLM Aminco (Lake Forest, Calif.) DW-2000 spectrophotometer in the dual wavelength mode of operation or a Hitachi (Tokyo, Japan) U3210 spectrophotometer at 340 nm with continuous recording over 5 or 10 min intervals once steady-state rates were obtained. The reaction mixture contained 50 mM Tris-Mes buffer (pH 7.0), 2 mM KCN to inhibit any potential mitochondrial oxidase activity, and 150 μM NADH in a total volume of 2.5 ml. Assay was at 37° C. with constant stirring. With purified fractions, 1 μM reduced glutathione was added to reduce the protein in the presence of substrate and human serum albumin, 0.1 mg/ml, as a protein source of thiols. After 10 min, 0.03% hydrogenperoxide was added (or oxidized glutathione) to reoxidize the protein under renaturing conditions and in the presence of substrate to start the reaction. A millimolar extinction coefficient of 6.22 was used to determine NADH disappearance. To determine capsaicin inhibition, capsaicin in DMSO was added to a final concentration of 1 μM (0.1% DMSO) and the rate of NADH oxidation determined over 10 min. Capsaicin at a final concentration of 100 μM (0.2% DMSO) was then added and the assay was continued for an additional 10 min. Immunoprecipitation. […]

[6] = tested on: NADH oxidase of normal sera; assay: NADH oxidase (NOX) activity of pooled sera of normal volunteers; assay type: biochemical, human
Method: (§2) Pooled sera. Pooled sera were collected from the patient population of the Michiana Hematology-Oncology Clinic, South Bend, Ind. and from the patient population of St. Elizabeth Hospital of Lafayette, Ind. Only cancer patients with active disease (Stage III or Stage IV) were identified at the time of collections. Sera were frozen after collection and stored frozen at −20° C. Prior to assay, samples were thawed and maintained at 4° C. between thawing and assay.
as §1
(§3) NADH oxidase activity can also be measured using an Hitachi (Tokyo, Japan) U3210 spectrophotometer over 5 min intervals at 37° C. The activity was determined as the disappearance of NADH measured at 340 nm. […]

[7] = tested on: tNOX; assay: NADH oxidase (NOX) activity of pooled sera of cancer patients; assay type: biochemical, human; settings: no MAB
Method: as §2
Spectrophotometric tNOX Assay. NADH oxidase activity was determined as the disappearance of NADH measured at 340 nm with 430 nm as reference using an SLM Aminco (Lake Forest, Calif.) DW-2000 spectrophotometer in the dual wavelength mode of operation or a Hitachi (Tokyo, Japan) U3210 spectrophotometer at 340 nm with continuous recording over 5 or 10 min intervals once steady-state rates were obtained. […] To determine capsaicin inhibition, capsaicin in DMSO was added to a final concentration of 1 μM (0.1% DMSO) and the rate of NADH oxidation determined over 10 min. […]
as §3

[8] = cells incubated in 0.1 M sodium acetate, pH 5, 2 h
[9] = cells incubated in PBS, pH 7, 2 h

Structure (SMILES) | ability of HeLa plasma membrane vesicles to oxidize NADH (in words) [1] | Km [2] [µM] | VMAX ([2]; estimated) [nmoles/min/mg protein] | NADH oxidase activity, 1 μM capsaicin [3, 8] | NADH oxidase activity, 100 μM capsaicin [3, 8] | NADH oxidase activity, 1 μM capsaicin [3, 9] | NADH oxidase activity, 100 μM capsaicin [3, 9] | Capsaicin inhibition [4] | Supernatant activity, 1 μM capsaicin ([5]; 1 μM capsaicin) [nmoles/min/100 μl serum] | Supernatant activity, 100 μM capsaicin ([5]; 100 μM capsaicin) [nmoles/min/100 μl serum] | NADH oxidation by pooled sera from normal patients (in words) ([6]; capsaicin 1 to 100 μM) | NOX activity of sera, +1 μM Cap ([6]; normal sera, no MAB, 1 μM capsaicin) | NOX activity of sera, + μM Cap ([6]; normal sera, no MAB, capsaicin (concentration not given)) | NOX activity of sera, +1 μM Cap ([7]; 1 μM capsaicin) | NOX activity of sera, + μM Cap ([7]; capsaicin (concentration not given))
Cc1ccc(S(=O)(=O)NC(=O)Nc2ccc(Cl)cc2)cc1 [LY181984] | partially inhibited | – | – | – | – | – | – | – | – | – | – | – | – | – | –
O=C(O)c1ccc(SSc2ccc(C(=O)O)cn2)nc1 [DTNA, 6,6′-dithionicotinic acid] | – | 1500 | 1.5 | – | – | – | – | – | – | – | – | – | – | – | –
COc1cc(CNC(=O)CCCC/C=C/C(C)C)ccc1O [capsaicin, 8-methyl-N-vanillyl-6-noneamide] | partially inhibited | – | – | 0.2 ± 0.01 nmoles/min/mg plasma membrane protein | 0.15 ± 0.02 nmoles/min/mg plasma membrane protein | 0.2 ± 0.02 nmoles/min/mg plasma membrane protein | 0.2 ± 0.02 nmoles/min/mg plasma membrane protein | −0.6 | 0.6 ± 0.4 | 0.5 | not inhibited | 0.7 ± 0.14 | 0.7 ± 0.16 | 1.0 ± 0.13 | 1.0 ± 0.17
